Assay [1] is described as follows: Selectivity index, ratio of IC50 for recombinant human MAO-A to IC50 for recombinant human MAO-B.
The target in assay [2] is T1, Amine oxidase [flavin-containing] B (Homo sapiens, UniProt P27338).
T1 sequence (P27338 whole entry): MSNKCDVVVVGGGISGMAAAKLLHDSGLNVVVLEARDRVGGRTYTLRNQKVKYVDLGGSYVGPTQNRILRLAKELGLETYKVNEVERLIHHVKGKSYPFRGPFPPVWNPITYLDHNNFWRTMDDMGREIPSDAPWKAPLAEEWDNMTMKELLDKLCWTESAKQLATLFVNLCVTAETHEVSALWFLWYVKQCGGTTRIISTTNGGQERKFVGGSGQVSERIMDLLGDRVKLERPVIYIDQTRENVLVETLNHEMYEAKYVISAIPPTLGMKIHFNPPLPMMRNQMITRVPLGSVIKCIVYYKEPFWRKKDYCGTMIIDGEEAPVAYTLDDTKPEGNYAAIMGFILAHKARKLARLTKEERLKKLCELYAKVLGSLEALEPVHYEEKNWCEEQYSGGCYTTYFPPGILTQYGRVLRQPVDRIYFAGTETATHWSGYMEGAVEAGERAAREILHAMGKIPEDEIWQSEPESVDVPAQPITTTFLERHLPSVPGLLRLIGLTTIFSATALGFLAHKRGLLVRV
Description: Inhibition of recombinant human MAO-B using p-benzylamine substrate preincubated for 15 mins before substrate addition measured after 20 mins by fluorescence assay

In assay [3] the target is T2, Amine oxidase [flavin-containing] A (Homo sapiens, UniProt P21397).
T2 sequence (P21397 whole entry): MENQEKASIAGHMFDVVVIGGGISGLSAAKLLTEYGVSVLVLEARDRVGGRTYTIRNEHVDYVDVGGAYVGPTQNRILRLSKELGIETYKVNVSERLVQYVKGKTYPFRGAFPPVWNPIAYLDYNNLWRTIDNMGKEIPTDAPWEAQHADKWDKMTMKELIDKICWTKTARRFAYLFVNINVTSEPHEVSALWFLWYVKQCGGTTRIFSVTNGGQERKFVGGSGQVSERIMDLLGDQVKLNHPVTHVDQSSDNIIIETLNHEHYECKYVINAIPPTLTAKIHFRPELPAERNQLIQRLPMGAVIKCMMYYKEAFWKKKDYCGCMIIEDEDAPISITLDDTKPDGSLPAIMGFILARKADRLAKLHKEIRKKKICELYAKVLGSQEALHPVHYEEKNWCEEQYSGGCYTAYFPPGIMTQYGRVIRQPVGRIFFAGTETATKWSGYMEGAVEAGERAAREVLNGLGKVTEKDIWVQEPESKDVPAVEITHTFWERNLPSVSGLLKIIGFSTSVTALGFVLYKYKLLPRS
Description: Inhibition of recombinant human MAO-A using p-tyramine substrate preincubated for 15 mins before substrate addition measured after 20 mins by fluorescence assay

The next assay has as its target Cholinesterase (Equus caballus, UniProt P81908).
A further assay concerns the target Acetylcholinesterase (Electrophorus electricus, UniProt O42275).
In assay [4] the target is T1, Amine oxidase [flavin-containing] B. Conditions: read-out: INH.
Assay [5] shares this target. Conditions: 20 min, read-out: INH.

The structures appear in SMILES notation.

This note sets out measurements from ChEMBL document CHEMBL2331140, “A novel series of tacrine-selegiline hybrids with cholinesterase and monoamine oxidase inhibition activities for the treatment of Alzheimer's disease” (Eur J Med Chem, 2013).

Sequence of Cholinesterase (P81908 whole entry): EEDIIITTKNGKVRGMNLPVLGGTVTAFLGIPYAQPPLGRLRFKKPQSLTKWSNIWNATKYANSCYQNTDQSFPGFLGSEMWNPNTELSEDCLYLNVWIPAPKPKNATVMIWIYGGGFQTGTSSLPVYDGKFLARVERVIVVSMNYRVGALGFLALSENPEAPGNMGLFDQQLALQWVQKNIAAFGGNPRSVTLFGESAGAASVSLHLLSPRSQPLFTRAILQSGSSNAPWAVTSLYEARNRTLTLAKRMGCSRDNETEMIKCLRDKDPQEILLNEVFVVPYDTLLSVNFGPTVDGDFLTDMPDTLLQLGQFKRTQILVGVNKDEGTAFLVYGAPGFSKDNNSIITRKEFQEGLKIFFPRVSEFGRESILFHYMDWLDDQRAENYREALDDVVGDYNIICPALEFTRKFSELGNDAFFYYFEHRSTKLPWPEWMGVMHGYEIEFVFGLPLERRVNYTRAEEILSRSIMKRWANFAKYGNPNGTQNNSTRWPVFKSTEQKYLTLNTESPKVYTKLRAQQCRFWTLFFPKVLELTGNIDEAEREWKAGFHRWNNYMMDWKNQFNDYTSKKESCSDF
Sequence of Acetylcholinesterase (O42275 whole entry): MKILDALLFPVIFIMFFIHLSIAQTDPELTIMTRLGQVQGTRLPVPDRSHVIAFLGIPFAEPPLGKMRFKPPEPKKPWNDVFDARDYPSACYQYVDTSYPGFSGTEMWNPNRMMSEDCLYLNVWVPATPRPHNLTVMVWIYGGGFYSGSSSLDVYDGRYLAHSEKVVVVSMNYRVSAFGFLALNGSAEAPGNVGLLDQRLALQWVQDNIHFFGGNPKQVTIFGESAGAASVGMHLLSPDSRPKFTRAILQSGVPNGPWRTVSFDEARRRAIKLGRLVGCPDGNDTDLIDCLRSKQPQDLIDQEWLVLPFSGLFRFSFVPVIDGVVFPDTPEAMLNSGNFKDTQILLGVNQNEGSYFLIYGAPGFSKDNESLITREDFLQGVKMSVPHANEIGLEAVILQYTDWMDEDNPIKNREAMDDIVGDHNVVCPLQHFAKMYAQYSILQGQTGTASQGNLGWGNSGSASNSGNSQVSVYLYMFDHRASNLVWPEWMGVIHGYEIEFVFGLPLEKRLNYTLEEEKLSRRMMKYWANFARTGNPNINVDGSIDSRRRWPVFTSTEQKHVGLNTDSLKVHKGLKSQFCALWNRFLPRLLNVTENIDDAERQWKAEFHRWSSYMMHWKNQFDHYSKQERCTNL
Description for Acetylcholinesterase: Inhibition of electric eel AChE using acetylthiocholine chloride as substrate after 15 mins by Ellman's method

In the case of `C#CCN(C)[C@H](C)Cc1ccc(OCCCCCCNc2c3c(nc4ccccc24)CCCC3)cc1`, the Ratio IC50 in assay [1] was 1.9. In addition, the IC50 in assay [2] is 209 nM; in assay [3], 398 nM; at Cholinesterase, 16.1 nM; against Acetylcholinesterase it was 138 nM.

With `C#CCN(C)[C@H](C)Cc1ccc(OCCCNc2c3c(nc4cc(Cl)ccc24)CCCC3)cc1`, the Ratio IC50 in assay [1] stood at 0.8. The half-inhibitory concentration (IC50) in assay [2] is 11100 nM; in assay [3] it was 9050 nM; against Cholinesterase, 66 nM; against Acetylcholinesterase, 14.2 nM.

As for `C#CCN(C)[C@H](C)Cc1ccc(OCCCCCCCCCCNc2c3c(nc4ccccc24)CCCC3)cc1`, in assay [1], the Ratio IC50 came out at 0.9. Also, the 50% inhibitory concentration (IC50) was determined as 346 nM in assay [2], 313 nM in assay [3], 2.03 nM against Cholinesterase and 23.2 nM against Acetylcholinesterase.

On to `C#CCN(C)[C@H](C)Cc1ccc(OCCCCCCCCNc2c3c(nc4ccccc24)CCCC3)cc1`, for which the Ratio IC50 in assay [1] came to 3.5. Moreover, the IC50 was found to be 167 nM in assay [2], 591 nM in assay [3], 35.5 nM on Cholinesterase and 147 nM against Acetylcholinesterase.

In the case of `C#CCN(C)[C@H](C)Cc1ccc(OCCCCCCNc2c3c(nc4cc(Cl)ccc24)CCCC3)cc1`, the Ratio IC50 in assay [1] is 1. The IC50 in assay [2] was 519 nM; in assay [3], 521 nM; on Cholinesterase it was 18.8 nM; against Acetylcholinesterase, 79.3 nM.

Consider `C#CCN(C)[C@H](C)Cc1ccc(OCCCCCNc2c3c(nc4ccccc24)CCCC3)cc1`, for which the Ratio IC50 in assay [1] was 0.5. For the same compound, the concentration for half-maximal inhibition (IC50) in assay [2] was 2400 nM; in assay [3] it was 1260 nM; against Cholinesterase, 23.5 nM; against Acetylcholinesterase, 77.6 nM.

In the case of `C#CCN(C)[C@H](C)Cc1ccc(OCCCCCNc2c3c(nc4cc(Cl)ccc24)CCCC3)cc1`, the Ratio IC50 in assay [1] stood at 0.5. The IC50 in assay [2] turned out to be 6210 nM; in assay [3], 2860 nM; at Cholinesterase it was 18.6 nM; at Acetylcholinesterase it was 82 nM.

As for `C#CCN(C)[C@H](C)Cc1ccc(OCCCCCCCCNc2c3c(nc4cc(Cl)ccc24)CCCC3)cc1`, the Ratio IC50 in assay [1] was found to be 1.5. Also, the 50% inhibitory concentration (IC50) is 129 nM in assay [2], 193 nM in assay [3], 17.6 nM against Cholinesterase and 55.4 nM against Acetylcholinesterase.

As for `C#CCN(C)[C@H](C)Cc1ccc(OCCNc2c3c(nc4ccccc24)CCCC3)cc1`, in assay [1], the Ratio IC50 amounted to 7. Further, the IC50 stood at 693 nM in assay [2], 4860 nM in assay [3], 50.6 nM on Cholinesterase and 83.1 nM against Acetylcholinesterase.

As for `C#CCN(C)[C@H](C)Cc1ccc(OCCCCNc2c3c(nc4ccccc24)CCCC3)cc1`, the Ratio IC50 in assay [1] was determined as 0.8. The IC50 was 8550 nM in assay [2], 7000 nM in assay [3], 39.6 nM at Cholinesterase and 53 nM on Acetylcholinesterase.

Take `C#CCN(CCCCCCNc1c2c(nc3ccccc13)CCCC2)[C@H](C)Cc1ccc(OC)cc1`: the Ratio IC50 in assay [1] is 1.9. Further, the IC50 in assay [2] was determined as 18100 nM; in assay [3] it was 33800 nM; on Cholinesterase, 28.7 nM; on Acetylcholinesterase it was 456 nM.

As to `C#CCN(C)[C@H](C)Cc1ccc(OCCCCCCCCCNc2c3c(nc4ccccc24)CCCC3)cc1`, the inhibition at 0.2 µM in assay [4] was 81.6%; in assay [5] it was 70.8%. The IC50 at Cholinesterase turned out to be 9.37 nM; against Acetylcholinesterase, 22.6 nM.

For `C#CCN(C)[C@H](C)Cc1ccc(OCCCNc2c3c(nc4ccccc24)CCCC3)cc1`, the Ratio IC50 in assay [1] turned out to be 9.7. The 50% inhibitory concentration (IC50) was 4460 nM in assay [2], 43400 nM in assay [3], 41.4 nM on Cholinesterase and 36.1 nM at Acetylcholinesterase.

The term IC50 denotes the concentration that gives 50% inhibition. Lower therefore signals greater potency in that assay.
